The values below come from ChEMBL document CHEMBL4330078, “Discovery of potent Pan-Raf inhibitors with increased solubility to overcome drug resistance” (Eur J Med Chem, 2019).

Series [1] is described as follows: Tmax in Sprague-Dawley rat at […], iv by LC-MS/MS analysis. Format: ADME, organism-based. Particulars: in vivo.
A short description of series [2]: Half life in human liver microsomes at 0.5 uM by LC-MS/MS analysis. The series is classed as ADME, Microsome. For orientation: Liver microsomes are a subcellular fraction often used to study metabolism.
Series [3] can be described thus: Oral bioavailability in Sprague-Dawley rat at 10 mg/kg by LC-MS/MS analysis. Format: ADME, organism-based. The note with it: in vivo.
A short description of series [4]: AUC (0 to infinity) in Sprague-Dawley rat at 10 mg/kg, po by LC-MS/MS analysis. Format: ADME, organism-based. Further details: dose 10 mg/kg, route oral, time infinity. The note with it: in vivo.
Series [5] is described as follows: Cmax in Sprague-Dawley rat at 10 mg/kg, po by LC-MS/MS analysis. Format: ADME, organism-based. Details: dose 10 mg/kg, route oral. Particulars: in vivo.
A short description of series [6]: Tmax in Sprague-Dawley rat at 10 mg/kg, po by LC-MS/MS analysis. The series is classed as ADME, organism-based. Particulars: in vivo.
Series [7] in a line: AUC (0 to t) in Sprague-Dawley rat at 10 mg/kg, po by LC-MS/MS analysis. The series is classed as ADME, organism-based. Particulars: in vivo.
A short description of series [8]: AUC (0 to infinity) in Sprague-Dawley rat at […], iv by LC-MS/MS analysis. Format: ADME, organism-based. Further details: dose 2.5 mg/kg, time infinity, route intravenous. The note with it: in vivo.
A short description of series [9]: Cmax in Sprague-Dawley rat at […], iv by LC-MS/MS analysis. The series is classed as ADME, organism-based. Details: dose 2.5 mg/kg, route intravenous. Particulars: in vivo.
The nature of series [10]: Half life in Sprague-Dawley rat at […], iv by LC-MS/MS analysis. The note with it: in vivo. The series is classed as ADME, organism-based.
Series [11] is described as follows: AUC (0 to t) in Sprague-Dawley rat at […], iv by LC-MS/MS analysis. Format: ADME, organism-based. The note with it: in vivo.
A short description of series [12]: Clearance in Sprague-Dawley rat at […], iv by LC-MS/MS analysis. Format: ADME, organism-based. The note with it: in vivo.
A short description of series [13]: Volume of distribution at steady state in Sprague-Dawley rat at […], iv by LC-MS/MS analysis. Format: ADME, organism-based. The note with it: in vivo, read-out: Vdss.

The term Tmax denotes the time from dosing to the highest level. What is called half-life is the time in which the quantity being followed falls by half. A high value points to slow decline. For orientation: bioavailability means dose-corrected exposure relative to a reference, in per cent. Higher therefore signals much systemic uptake. For orientation: AUC(0-inf) means total exposure, with the tail of the curve extrapolated. Low values mean less exposure, high ones more exposure. In general, Cmax refers to the maximum level reached in the sampled fluid or tissue. For orientation: AUC(0-t) means exposure summed from dosing to a finite time, without extrapolation to infinity. Low values mean less exposure, high ones more exposure. What is called clearance is a measure of how efficiently the substance is removed, as volume per time. Low readings indicate inefficient removal, high ones efficient removal. For the compound `Cc1ccc(C(=O)Nc2ccc(OCC3CCN(C)CC3)c(C(F)(F)F)c2)cc1NC(=O)C1(c2ncnc3[nH]ccc23)CC1`, the Tmax in series [1] is 4.98 min; in series [6] it was 4 h. The compound also showed a half-life at 0.5 µM in series [2] of 6.5 h. Moreover, in [3], the bioavailability is 22.9%. For the same compound, the AUC(0-inf) stood at 0.522 µg·h/mL in series [4] and 0.607 µg·h/mL in series [8]. The Cmax in [5] came out at 0.0721 µg/mL; in series [9], 0.273 µg/mL. Moreover, the AUC(0-t) in series [7] amounted to 0.503 µg·h/mL; in series [11], 0.549 µg·h/mL. The compound further gave a half-life in series [10] of 7.7 h. This compound also gave a clearance in series [12] of 4.1 L/h/kg. For the same compound, the Vd in [13] was 45.7 L/kg.
For the compound `CNC(=O)c1cc(Oc2ccc(NC(=O)Nc3ccc(Cl)c(C(F)(F)F)c3)cc2)ccn1` [SORAFENIB], the half-life at 0.5 µM in series [2] was 5.6 h.
